Measured values reported in BigSolDB 2.1.

What does the source list for C=C1CC[C@H](O)C/C1=C/C=C1\CCC[C@]2(C)[C@@H]([C@H](C)CCCC(C)C)CC[C@@H]12?
solubility (mole fraction) (in DMSO, 273.2 K): 0.0041; solubility (mole fraction) (in DMSO, 278.2 K): 0.00469; solubility (mole fraction) (in DMSO, 283.2 K): 0.00533; solubility (mole fraction) (in DMSO, 288.2 K): 0.00601; solubility (mole fraction) (in DMSO, 298.2 K): 0.00723; solubility (mole fraction) (in PEG-400, 273.2 K): 0.0135; solubility (mole fraction) (in PEG-400, 278.2 K): 0.0162; solubility (mole fraction) (in PEG-400, 283.2 K): 0.0191; solubility (mole fraction) (in PEG-400, 288.2 K): 0.0222; solubility (mole fraction) (in PEG-400, 298.2 K): 0.0291; solubility (mole fraction) (in ethanol, 273.2 K): 0.136; solubility (mole fraction) (in ethanol, 278.2 K): 0.144; solubility (mole fraction) (in ethanol, 283.2 K): 0.153; solubility (mole fraction) (in ethanol, 288.2 K): 0.162; solubility (mole fraction) (in ethanol, 298.2 K): 0.177; solubility (mole fraction) (in ethyl acetate, 273.2 K): 0.0904; solubility (mole fraction) (in ethyl acetate, 278.2 K): 0.109; solubility (mole fraction) (in ethyl acetate, 283.2 K): 0.131; solubility (mole fraction) (in ethyl acetate, 288.2 K): 0.15; solubility (mole fraction) (in ethyl acetate, 298.2 K): 0.195; solubility (mole fraction) (in ethylene glycol, 273.2 K): 0.000113; solubility (mole fraction) (in ethylene glycol, 278.2 K): 0.000161; solubility (mole fraction) (in ethylene glycol, 283.2 K): 0.000234; solubility (mole fraction) (in ethylene glycol, 288.2 K): 0.000318; solubility (mole fraction) (in ethylene glycol, 298.2 K): 0.000524; solubility (mole fraction) (in isopropanol, 273.2 K): 0.19; solubility (mole fraction) (in isopropanol, 278.2 K): 0.202; solubility (mole fraction) (in isopropanol, 283.2 K): 0.215; solubility (mole fraction) (in isopropanol, 288.2 K): 0.225; solubility (mole fraction) (in isopropanol, 298.2 K): 0.245; solubility (mole fraction) (in n-butanol, 273.2 K): 0.151; solubility (mole fraction) (in n-butanol, 278.2 K): 0.157; solubility (mole fraction) (in n-butanol, 283.2 K): 0.163; solubility (mole fraction) (in n-butanol, 288.2 K): 0.169; solubility (mole fraction) (in n-butanol, 298.2 K): 0.169; solubility (mole fraction) (in propylene glycol, 273.2 K): 0.00142; solubility (mole fraction) (in propylene glycol, 278.2 K): 0.00176; solubility (mole fraction) (in propylene glycol, 283.2 K): 0.00209; solubility (mole fraction) (in propylene glycol, 288.2 K): 0.00249; solubility (mole fraction) (in propylene glycol, 298.2 K): 0.00337; solubility (mole fraction) (in sec-butanol, 273.2 K): 0.154; solubility (mole fraction) (in sec-butanol, 278.2 K): 0.161; solubility (mole fraction) (in sec-butanol, 283.2 K): 0.168; solubility (mole fraction) (in sec-butanol, 288.2 K): 0.176; solubility (mole fraction) (in sec-butanol, 298.2 K): 0.187; solubility (mole fraction) (in transcutol, 273.2 K): 0.369; solubility (mole fraction) (in transcutol, 278.2 K): 0.375; solubility (mole fraction) (in transcutol, 283.2 K): 0.382; solubility (mole fraction) (in transcutol, 288.2 K): 0.39; solubility (mole fraction) (in transcutol, 298.2 K): 0.403; solubility (mole fraction) (in water, 273.2 K): 1.87e-07; solubility (mole fraction) (in water, 278.2 K): 2.9e-07; solubility (mole fraction) (in water, 283.2 K): 4.22e-07; solubility (mole fraction) (in water, 288.2 K): 5.67e-07; solubility (mole fraction) (in water, 298.2 K): 1.03e-06
